Read-outs that look alike come from different tables or passages of the source.
How the values were obtained:
[1] = system: motor neurons derived from ALS patient iPSC line with pathogenic mutation in TARDBP; experiment: Optopatch excitability assay in motor neurons derived from ALS patient iPSC line (TARDBP mutation); format: cell-based, human; details: for EC50: Homo sapiens, iPSC, TARDBP line, blue LED 5.1 mW/cm^2, mean, read-out: EC50, inhibition of excitability (action potential frequency)
Excerpt: Optopatch Excitability Assay for Example 1 in Motor Neurons Derived From ALS Patient iPSC Lines
Altered excitability of cortical neurons and lower motor neuron is an important factor in the pathophysiology of ALS (See, for example, K. Kanai, et. al., J Neurol Neurosurg Psychiatry, 83, 734-738 (2012); P. Menon, et. al., Eur Neurol., 24, 816-824 (2017)). All-optical electrophysiology (“Optopatch”) was used to evaluate excitability in cultured motor neurons derived from iPSC lines from two ALS patients with different pathogenic mutations.
Cell Culture: The two iPSC lines are derived from one patient with a pathogenic mutation in TARDBP and one patient with a pathogenic repeat expansion mutation in C9orf72, respectively. Motor neurons are generated from these lines by a 2D differentiation method adapted from the dual SMAD inhibition neuronal patterning protocol (See S. M. Chambers, et. al., Nat Biotechnol., 27, 275-280 (2009)) by inclusion of motor neuron morphogens. Differentiation is verified by visual inspection, karyotyping and staining for beta-III-tubulin and the nuclear motor neuron marker ISL1. Neurons are cultured on a monolayer of mouse glia in mTeSR (Stem Cell Technologies), supplemented with 10 ng/mL BDNF. Forty-eight hours prior to imaging, 100 nM trans-retinal was added to the medium.
Transduction with Optopatch vectors: At 15 days in vitro, cultured motor neurons are transduced with a lentiviral vector to drive the co-expression of the actuator CheRiff-mOrange2 and the voltage indicator QuasAr3-Citrine (for details see D. R. Hochbaum, et. al., Nat. Methods, 11, 825-833 (2014)). Forty-eight hours prior to imaging, 100 nM trans-retinal was added to the medium.
Solutions: Recordings are performed in Brainphys™ imaging buffer with 3 mM potassium. The gap junction blocker 2-aminoethoxydiphenyl borate (50 μM) is added to eliminate electrical coupling between cells, and NBQX (10 μM), gabazine (20 μM), and AP5 (25 μM) were used to block synaptic transmission.
Optopatch Recordings: Five days after transduction, Optopatch imaging is performed on a custom, ultra-widefield fluorescence microscope at RT. Motor neurons are illuminated with red laser excitation (200 W/cm^2; 635 nm) to monitor changes in QuasAr fluorescence and blue LED excitation (0-127 mW/cm^2, 470 nm) to depolarize the cell membrane with CheRiff. A custom blue light stimulus protocol is used consisting of: i) 2 sec of red illumination only to monitor spontaneous activity, ii) 5×500 msec steps of increasing blue light intensity and iii) 2×2 sec linearly increasing blue light ramps, each with a different maximum blue intensity. Optopatch data are recorded using a Hamamatsu ORCA-Flash 4.0 sCMOS camera with a 1 kHz frame rate. The field of view size is 4 mm×0.5 mm. Custom control software written in MATLAB is used to control illumination protocols and record all movies. To examine acute effects of Kv7.2/7.3 potentiators, neurons are incubated with test compound for 15 min prior to imaging.
Data Analysis: Image segmentation analysis is performed using temporal Principle Component Analysis and spatial-temporal Independent Component Analysis to isolate individual neurons. A spike-finding algorithm is used to find action potentials, and data are analyzed for compound effects on mean firing rate, adaptation, rheobase and action potential waveform shape by comparing to vehicle controls (for detail, see C. A. Werley, et. al., Curr. Protoc. Pharmacol., 78, 11.20.1-11.20.24. (2017)).
Subjected to the protocol described above, the primary effect of the Example 1 is on the action potential firing rate in response to low intensity blue light illumination.
Fitting a 4-parameter logistic equation to the data may be used to determine the potency (EC50) of the effect of Example 1 on action potential frequency. Results are shown in Table 1 for two separate differentiation efforts each for the lines derived from the patients carrying the TARDBP and C9orf72 mutations.

[2] = Unbound exposure in blood (dry blood spots, LC/MSMS, fraction unbound by dialysis) in threshold tracking study; format: in vivo; details: rat
Experimental: In threshold tracking assay to measure the excitability properties of peripheral axons studies in rat, compound is administered by IP at 3, 10 or 30 mg/kg using 1% hydroxyethylcellulose: 0.25% polysorbate 80:0.05% antifoam:purified water (HEC) formulation. Dry blood spots (DBS) are collected around 10, 20, 30 and terminal 40 min post-dose. DBS samples are dried at RT for around 2 h. Brain samples are obtained at terminal time point and frozen until analysis. DBS samples are shipped and stored at RT.
A 1-mg/mL stock solution of Example 1 is prepared and is serially diluted into pooled rat blood to prepare standards ranging from 1 to 10000 ng/mL. Blood wis spiked to blank DBS cards to make the standards. One 3 mm punch of the DBS standards or samples are added to 96 well plate and 180 μL of the internal standard (IS) in 1:1 ACN:MeOH is added. Shake for 45 min, dilute the extraction solution two fold with water, and analyze by LC/MSMS for drug concentration analysis.
Samples and standards are analyzed with a Sciex API 4000 Triple Quadrupole Mass Spectrometer (Sciex, Division of MDS Inc., Toronto, Canada) coupled to a Shimadzu HPLC System (LC-IOAD, Shimadzu Corporation) and a Gilson 215 Autosampler. […] Quantitation is performed using multiple reaction monitoring (MRM) at the following transitions: Example 1 (m/z 350.2 to m/z 233.0) and an analog internal standard (m/z 263.1 to m/z 148.1). […]
Drug binding to rat plasma proteins and brain homogenates is determined using in vitro dialysis method after spiking drug into these matrixes and incubated over 4.5 h at 37° C., while undergoing orbital shaking. […] Parent is quantitated by LC-MSMS at both 0 and […] time points. Fraction unbound is calculated by dividing the concentration of the buffer side by the concentration of the protein side. Percent recovery is also calculated by dividing the sum of the buffer and protein chambers by the time 0 concentration after 4.5 h. […]

EC50 ([1]; Diff 1): 150 nM
EC50 ([1]; Diff 2): 150 nM
Unbound Exposure in Blood (±SEM) ([2]; 3 mg/kg (IP)): 145 (±90) nM
Unbound Exposure in Blood (±SEM) ([2]; 10 mg/kg (IP)): 193 (±50) nM
Unbound Exposure in Blood (±SEM) ([2]; 30 mg/kg (IP)): 352 (±245) nM
SMILES: CC(C)(C)[C@H](O)CNC(=O)NCc1ccnc(OCC(F)(F)F)c1 [Example 1, 1-[(2S)-2-hydroxy-3,3-dimethyl-butyl]-3-[[2-(2,2,2-trifluoroethoxy)-4-pyridyl]methyl]urea]
effect on action potential frequency ([1]; blue LED illumination intensity 5.1 mW/cm^2, text does not distinguish the two lines): decreased action potential frequency in a concentration-dependent manner
observed effects compared with flupirtine ([1]; both patient lines, vs known Kv7.2/7.3 potentiator flupirtine): qualitatively similar but more potent

Source: patent US12344584B2, “KCNQ potentiators” (Eli Lilly and Company, priority 2019, dated 2025)
